The text below walks through data of patent publication EP1137645B1, “ALPHA-METHYLBENZYL-CONTAINING THIOUREA INHIBITORS OF HERPES VIRUSES CONTAINING A […] GROUP” (Wyeth, priority 1998, dated 2000).

In brackets after ≈: the same amount, converted by molar mass. Where two headings read alike, the source gives them in different places.

Assay [1] has as its system HCMV recombinant mutant virus whose genome contains the prokaryotic beta-glucuronidase gene. The assay can be described thus: microbe, parasite or virus in culture. Type of assay: cell-based, human cytomegalovirus. The following applies: Human betaherpesvirus 5, Fibroblast. The method, boiled down:
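Antiviral IC50 estimated from reduced reporter activity across compound amounts: lysates prepared 96 h after infection were tested with p-nitrophenyl- or methylumbelliferyl-glucuronide. Cells were human foreskin fibroblasts, infected alongside inhibitor with HCMV (e.g. RV145) expressing viral promoter-driven beta-glucuronidase.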

For a further assay, the system named is HSV- I. The assay can be described thus: HSV antiviral (ELISA) assay. The format is cell-based. The note with it: HSV- I, Vero cells, ELISA; read-out: IC50 (ug/ml) HSV. The method, boiled down: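 IC50 from fluorescence versus untreated control in a cell ELISA: anti-glycoprotein D antibody, β-galactosidase-conjugated secondary, 4-methyl umbelliferone read at 365/450 nm. Vero cells (2% FBS DMEM) received compound 30 min pre-infection with HSV-1 at MOI 0.006, fixed ~24 h post-infection.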

The next assay relates to VZV strain Ellen. The assay can be described thus: VZV antiviral (ELISA) assay. The format is cell-based. The note with it: for IC50: read-out: IC50 (ug/ml) VZV. In outline: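 HFF cells infected with VZV Ellen at multiplicity below 0.1 overnight, then mixed infected/uninfected cells seeded with compound in DMEM/2% FBS and incubated three days at 37°C, 5% CO2.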
Setting [2] is: read-out: IC50 ug/ml HCMV, HCMV, human foreskin fibroblasts.
[3] abbreviates: Human alphaherpesvirus 3, HFF, read-out: % inhibition 10 ug/ml VZV.

On to `COc1ccc(NC(=S)Nc2ccc(NC(=O)c3cccc(F)c3)cc2)cc1Cl` [Example 822, N-{4-[3-(3-Chloro-4-methoxy-phenyl)-thioureido]-phenyl}-3-fluoro-benzamide], for which the IC50 in assay [1] (setting [2]) was 3 µg/mL (≈ 6.98 µM); with HSV- I it was 3 µg/mL (≈ 6.98 µM); in the assay with VZV strain Ellen (Human alphaherpesvirus 3, HFF), above 10 µg/mL. For the same compound, the inhibition at 10 µg/mL in the assay with VZV strain Ellen (setting [3]) worked out at 0%.

`COc1ccc(NC(=S)Nc2ccc(NC(=O)c3ccc(F)cc3)cc2)cc1Cl` [Example 823, N-{4-[3-(3-Chloro-4-methoxy-phenyl)-thioureido]-phenyl}-4-fluoro-benzamide]: the IC50 is 6 µg/mL (≈ 14 µM) in assay [1] (setting [2]); 6 µg/mL (≈ 14 µM) with HSV- I; above 10 µg/mL with VZV strain Ellen (Human alphaherpesvirus 3, HFF). Also, in the assay on VZV strain Ellen (setting [3]), the inhibition at 10 µg/mL is 7%.

For `COc1cc(OC)c(NC(=S)Nc2ccc(NC(=O)c3ccccc3F)cc2)cc1Br` [Example 827, N-{4-[3-(5-Bromo-2,4-dimethoxy-phenyl)-thioureido]-phenyl}-2-fluoro-benzamide], the IC50 is 10 µg/mL (≈ 19.8 µM) in assay [1] (setting [2]); 0.2 µg/mL (≈ 0.397 µM) in the assay on HSV- I; 3.5 µg/mL (≈ 6.94 µM) with VZV strain Ellen (Human alphaherpesvirus 3, HFF). The inhibition at 10 µg/mL with VZV strain Ellen (setting [3]) was found to be 70%.

As for `COc1cc(OC)c(NC(=S)Nc2ccc(NC(=O)c3ccccc3C)cc2)cc1Br` [Example 829, N-{4-[3-(5-Bromo-2,4-dimethoxy-phenyl)-thioureido]-phenyl}-2-methyl-benzamide], the IC50 in assay [1] (setting [2]) was 10 µg/mL (≈ 20 µM); with HSV- I, 0.25 µg/mL (≈ 0.5 µM); in the assay with VZV strain Ellen (Human alphaherpesvirus 3, HFF), above 15 µg/mL. For the same compound, in the assay with VZV strain Ellen (setting [3]), the inhibition at 10 µg/mL is 50%.

`COc1ccc(C(=O)Nc2ccc(NC(=S)Nc3cc(Br)c(OC)cc3OC)cc2)cc1` [Example 830, N-{4-[3-(5-Bromo-2,4-dimethoxy-phenyl)-thioureido]-phenyl}-4-methoxy-benzamide]: the IC50 in assay [1] (setting [2]) was above 10 µg/mL; in the assay on HSV- I it was 1.5 µg/mL (≈ 2.9 µM); in the assay on VZV strain Ellen (Human alphaherpesvirus 3, HFF), above 10 µg/mL. Besides, the inhibition at 10 µg/mL with VZV strain Ellen (setting [3]) came to 16%.

Consider `CSc1ccc(NC(=S)Nc2ccc(NC(=O)c3ccccc3F)cc2)cc1Cl` [Example 847, N-{4-[3-(3-Chloro-4-methylsulfanyl-phenyl)-thioureido]-phenyl}-2-fluoro-benzamide], for which the IC50 in assay [1] (setting [2]) was 0.3 µg/mL (≈ 0.673 µM); in the assay with HSV- I, 0.4 µg/mL (≈ 0.897 µM); in the assay on VZV strain Ellen (Human alphaherpesvirus 3, HFF), above 10 µg/mL. Further, the inhibition at 10 µg/mL with VZV strain Ellen (setting [3]) was found to be 65%.

Take `CSc1ccc(NC(=S)Nc2ccc(NC(=O)c3c(F)cccc3F)cc2)cc1Cl` [Example 848, N-{4-[3-(3-Chloro-4-methylsulfanyl-phenyl)-thioureido]-phenyl}-2,6-difluoro-benzamide]: the IC50 was determined as 0.3 µg/mL (≈ 0.647 µM) in assay [1] (setting [2]); 0.085 µg/mL (≈ 0.183 µM) in the assay with HSV- I; 1.3 µg/mL (≈ 2.8 µM) in the assay with VZV strain Ellen (Human alphaherpesvirus 3, HFF). Moreover, in the assay on VZV strain Ellen (setting [3]), the inhibition at 10 µg/mL amounted to 101%.

Consider `COc1cc(C)c(Cl)cc1NC(=S)Nc1ccc(NC(=O)c2ccccc2F)cc1` [Example 849, N-{4-[3-(5-Chloro-2-methoxy-4-methyl-phenyl)-thioureido]-phenyl}-2-fluoro-benzamide], for which the IC50 in assay [1] (setting [2]) was above 10 µg/mL; in the assay with HSV- I, above 10 µg/mL; in the assay on VZV strain Ellen (Human alphaherpesvirus 3, HFF), above 10 µg/mL. In addition, in the assay with VZV strain Ellen (setting [3]), the inhibition at 10 µg/mL is 38%.

Take `COc1cc(C)c(Cl)cc1NC(=S)Nc1ccc(NC(=O)c2ccccc2C)cc1` [Example 850, N-{4-[3-(5-Chloro-2-methoxy-4-methyl-phenyl)-thioureido]-phenyl}-2-methyl-benzamide]: the IC50 was 2 µg/mL (≈ 4.55 µM) in assay [1] (setting [2]); 0.09 µg/mL (≈ 0.205 µM) in the assay on HSV- I; 5 µg/mL (≈ 11.4 µM) with VZV strain Ellen (Human alphaherpesvirus 3, HFF). In addition, the inhibition at 10 µg/mL with VZV strain Ellen (setting [3]) was 28%.

For the compound `CN(C)c1ccc(NC(=S)Nc2ccc(NC(=O)c3ccccc3F)cc2)cc1Cl` [Example 852, N-{4-[3-(3-Chloro-4-dimethylamino-phenyl)-thioureido]-phenyl}-2-fluoro-benzamide], the IC50 worked out at 0.6 µg/mL (≈ 1.35 µM) in assay [1] (setting [2]); 4 µg/mL (≈ 9.03 µM) with HSV- I; 6.5 µg/mL (≈ 14.7 µM) in the assay on VZV strain Ellen (Human alphaherpesvirus 3, HFF). Also, the inhibition at 10 µg/mL in the assay on VZV strain Ellen (setting [3]) was determined as 80%.

Take `CN(c1ccc(NC(=S)Nc2ccc(NC(=O)c3ccccc3F)cc2)cc1Cl)C1CCN(Cc2ccccc2)C1` (stereo not shown) [Example 857, N-[4-(3-{4-[(1-Benzyl-pyrrolidin-3-yl)-methyl-amino]-3-chloro-phenyl)-thioureido)-phenyl]-2-fluoro-benzamide]: the IC50 in assay [1] (setting [2]) was determined as 6 µg/mL (≈ 10.2 µM); in the assay on HSV- I, 2 µg/mL (≈ 3.4 µM); with VZV strain Ellen (Human alphaherpesvirus 3, HFF), 7 µg/mL (≈ 11.9 µM). Moreover, the inhibition at 10 µg/mL in the assay on VZV strain Ellen (setting [3]) came to 80%.

With `O=C(Nc1ccc(NC(=S)Nc2ccccc2)cc1)c1ccccc1F` [Example 859, 2-Fluoro-N-[4-(3-phenyl-thioureido)-phenyl]-benzamide], the IC50 in assay [1] (read-out: IC50 ug/ml HCMV) is above 10 µg/mL; with HSV- I, above 10 µg/mL; with VZV strain Ellen (Human alphaherpesvirus 3, VZV strain Ellen, HFF cells, ELISA) it was above 10 µg/mL. In addition, the inhibition at 10 µg/mL in the assay with VZV strain Ellen (Human alphaherpesvirus 3, read-out: % inhibition 10 ug/ml VZV, 10 ug/ml, VZV strain Ellen, HFF cells, ELISA) is 20%.

For `CC(O)c1ccc(NC(=S)Nc2ccc(NC(=O)c3ccccc3F)cc2)cc1Cl` (stereo not shown) [Example 865, N-(4-{3-[3-Chloro-4-(1-hydroxy-ethyl)-phenyl]-thioureido}-phenyl)-2-fluoro-benzamide], the IC50 in assay [1] (setting [2]) was 0.3 µg/mL (≈ 0.676 µM); with HSV- I, 4 µg/mL (≈ 9.01 µM); in the assay with VZV strain Ellen (Human alphaherpesvirus 3, HFF) it was above 10 µg/mL. In the assay on VZV strain Ellen (setting [3]), the inhibition at 10 µg/mL was found to be 52%.

As to `CC(C)(C)c1cccc(NC(=S)Nc2ccc(NC(=O)c3ccccc3F)cc2)c1` [Example 869, N-{4-[3-(3-tert-Butyl-phenyl)-thioureido]-phenyl}-2-fluoro-benzamide], the IC50 in assay [1] (setting [2]) turned out to be 2.5 µg/mL (≈ 5.93 µM); in the assay on HSV- I, 5.5 µg/mL (≈ 13 µM); in the assay on VZV strain Ellen (Human alphaherpesvirus 3, HFF), 3 µg/mL (≈ 7.12 µM). In addition, the inhibition at 10 µg/mL in the assay on VZV strain Ellen (setting [3]) was found to be 77%.

Consider `COc1c(Cl)cc(NC(=S)Nc2ccc(NC(=O)c3cccc(F)c3)cc2)cc1Cl` [Example 872, N-{4-[3-(3,5-Dichloro-4-methoxy-phenyl)-thioureido]-phenyl}-3-fluoro-benzamide], for which the IC50 in assay [1] (setting [2]) was 0.6 µg/mL (≈ 1.29 µM); in the assay with HSV- I, 4 µg/mL (≈ 8.61 µM); in the assay on VZV strain Ellen (Human alphaherpesvirus 3, HFF), above 10 µg/mL. The inhibition at 10 µg/mL in the assay with VZV strain Ellen (setting [3]) came out at 28%.

With `COc1ccccc1C(=O)Nc1ccc(NC(=S)Nc2cc(Cl)c(OC)c(Cl)c2)cc1` [Example 873, N-{4-[3-(3,5-Dichloro-4-methoxy-phenyl)-thioureido]-phenyl}-2-methoxy-benzamide], the IC50 in assay [1] (setting [2]) was 0.3 µg/mL (≈ 0.63 µM); in the assay with HSV- I, above 10 µg/mL; in the assay with VZV strain Ellen (Human alphaherpesvirus 3, HFF), above 10 µg/mL. Moreover, in the assay on VZV strain Ellen (setting [3]), the inhibition at 10 µg/mL amounted to 23%.

For `COc1c(Cl)cc(NC(=S)Nc2ccc(NC(=O)c3ccccc3F)cc2)cc1Cl` [Example 874, N-{4-[3-(3,5-Dichloro-4-methoxy-phenyl)-thioureido]-phenyl}-2-fluoro-benzamide], the IC50 was 0.2 µg/mL (≈ 0.431 µM) in assay [1] (setting [2]); 5 µg/mL (≈ 10.8 µM) in the assay on HSV- I; 3.5 µg/mL (≈ 7.54 µM) in the assay with VZV strain Ellen (Human alphaherpesvirus 3, HFF). The inhibition at 10 µg/mL in the assay on VZV strain Ellen (setting [3]) was determined as 75%.

As to `COc1cccc(C(=O)Nc2ccc(NC(=S)Nc3cc(Cl)c(OC)c(Cl)c3)cc2)c1` [Example 875, N-{4-[3-(3,5-Dichloro-4-methoxy-phenyl)-thioureido]-phenyl}-3-methoxy-benzamide], the IC50 in assay [1] (setting [2]) was 0.4 µg/mL (≈ 0.84 µM); in the assay with HSV- I, 6 µg/mL (≈ 12.6 µM); in the assay on VZV strain Ellen (Human alphaherpesvirus 3, HFF) it was above 10 µg/mL. Moreover, the inhibition at 10 µg/mL with VZV strain Ellen (setting [3]) was determined as 20%.

As for `COc1ccc(C(=O)Nc2ccc(NC(=S)Nc3cc(Cl)c(OC)c(Cl)c3)cc2)cc1` [Example 880, N-{4-[3-(3,5-Dichloro-4-methoxy-phenyl)-thioureido]-phenyl}-4-methoxy-benzamide], the IC50 in assay [1] (setting [2]) is 10 µg/mL (≈ 21 µM); with HSV- I it was above 10 µg/mL; in the assay with VZV strain Ellen (Human alphaherpesvirus 3, HFF), above 10 µg/mL. Also, the inhibition at 10 µg/mL in the assay on VZV strain Ellen (setting [3]) stood at 30%.
